Source: US10011595B2 (Merck Sharp & Dohme Corp., priority 2014, dated 2018)

Molecular target: human orexin-2 receptor (Homo sapiens (Human), UniProt O43614)
Test: FLIPR Ca2+ Flux Assay, orexin-2 receptor
Format: cell-based
Conditions: CHO cells expressing the human orexin-2 receptor; agonist 70 pM Ala-6,12 orexin-A; read-out: hOX2R FLIPR IC50
Description: In a typical experiment the OX1 and OX2 receptor antagonistic activity of the compounds of the present invention was determined in accordance with the following experimental method. For intracellular calcium measurements, Chinese hamster ovary (CHO) cells expressing the rat orexin-1 receptor or the human orexin-2 receptor, are grown in Iscove's modified DMEM containing 2 mM L-glutamine, […], 1% hypoxanthine-thymidine supplement, 100 U/ml penicillin, 100 μg/ml streptomycin and 10% heat-inactivated fetal calf serum (FCS). The cells are seeded at 20,000 cells/well into Becton-Dickinson black 384-well clear bottom sterile plates coated with poly-D-lysine. All reagents were from GIBCO-Invitrogen Corp. The seeded plates are incubated overnight at 37° C. and 5% CO2. Ala-6,12 human orexin-A as the agonist is prepared as a 1 mM stock solution in 1% bovine serum albumin (BSA) and diluted in assay buffer (HBSS containing 20 mM HEPES, 0.1% BSA and 2.5 mM probenecid, pH7.4) for use in the assay at a final concentration of 70 pM. Test compounds are prepared as 10 mM stock solution in DMSO, then diluted in 384-well plates, first in DMSO, then assay buffer. On the day of the assay, cells are washed 3 times with 100 μl assay buffer and then incubated for 60 min (37° C., 5% CO2) in 60 μl assay buffer containing 1 μM Fluo-4AM ester, 0.02% pluronic acid, and 1% BSA. The dye loading solution is then aspirated and cells are washed 3 times with 100 μl assay buffer. 30 μl of that same buffer is left in each well. Within the Fluorescent Imaging Plate Reader (FLIPR, Molecular Devices), test compounds are added to the plate in a volume of 25 μl, incubated for 5 min and finally 25 μl of agonist is added. Fluorescence is measured for each well at 1 second intervals for 5 minutes and the height of each fluorescence peak is compared to the height of the fluorescence peak induced by 70 pM Ala-6,12 orexin-A with buffer in place of antagonist. For each antagonist, IC50 value (the concentration of compound needed to inhibit 50% of the agonist response) is determined. Alternatively, compound potency can be assessed by a radioligand binding assay (described in Bergman et. al. Bioorg. Med. Chem. Lett. 2008, 18, 1425-1430) in which the inhibition constant (Ki) is determined in membranes prepared from CHO cells expressing either the OX1 or OX2 receptor. The intrinsic orexin receptor antagonist activity of a compound which may be used in the present invention may be determined by these assays.

human orexin-2 receptor, sequence (O43614 whole entry): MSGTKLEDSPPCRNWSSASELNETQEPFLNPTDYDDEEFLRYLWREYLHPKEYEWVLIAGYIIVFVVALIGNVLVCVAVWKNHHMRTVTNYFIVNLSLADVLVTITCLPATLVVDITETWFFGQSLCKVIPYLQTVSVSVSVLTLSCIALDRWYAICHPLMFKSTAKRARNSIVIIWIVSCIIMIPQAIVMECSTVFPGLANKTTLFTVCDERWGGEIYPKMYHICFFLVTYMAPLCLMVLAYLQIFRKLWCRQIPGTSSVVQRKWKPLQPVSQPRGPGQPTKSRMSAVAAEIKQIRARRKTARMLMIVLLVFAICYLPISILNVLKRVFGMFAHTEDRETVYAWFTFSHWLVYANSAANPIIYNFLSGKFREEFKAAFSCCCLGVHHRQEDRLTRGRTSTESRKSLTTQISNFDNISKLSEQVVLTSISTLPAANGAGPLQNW

Compound	IC50 [nM]
CCN(CCN(C)c1nc(C)cc(C)n1)C(=O)c1ccccc1-n1nccn1 [Example A-1, N-(2-((4,6-dimethylpyrimidin-2-yl)(methyl)amino)ethyl)-N-ethyl-2-(2H-1,2,3-triazol-2-yl)benzamide]	36.5
CCN(CCNc1nc(C)cc(C)n1)C(=O)c1ccccc1-n1nccn1 [Example A-5, N-(2-((4,6-dimethylpyrimidin-2-yl)amino)ethyl)-N-ethyl-2-(2H-1,2,3-triazol-2-yl)benzamide]	1760
CCN(CCN(C)c1nc(C)cc(C)n1)C(=O)c1ccccc1C1CC1 [Example B-1, 2-cyclopropyl-N-(2-((4,6-dimethylpyrimidin-2-yl)(methyl)amino)ethyl)-N-ethylbenzamide]	26.4
CCN(CCN(C)c1nc(C)cc(C)n1)C(=O)c1cccnc1OC(C)C [Example B-5, N-(2-((4,6-dimethylpyrimidin-2-yl)(methyl)amino)ethyl)-N-ethyl-2-isopropoxynicotinamide]	80
CCOc1ncccc1C(=O)N(CC)CCN(C)c1nc(C)cc(C)n1 [Example B-6, N-(2-((4,6-dimethylpyrimidin-2-yl)(methyl)amino)ethyl)-2-ethoxy-N-ethylnicotinamide]	68.1
CCN(CCN(C)c1nc(C)cc(C)n1)C(=O)c1ccccc1OC(F)(F)F [Example B-7, N-(2-((4,6-dimethylpyrimidin-2-yl)(methyl)amino)ethyl)-N-ethyl-2-(trifluoromethoxy)benzamide]	9.4
CCN(CCN(C)c1nc(C)cc(C)n1)C(=O)c1ccccc1OC(F)F [Example B-8, 2-(difluoromethoxy)-N-(2-((4,6-dimethylpyrimidin-2-yl)(methyl)amino)ethyl)-N-ethylbenzamide]	18.5
CCN(CCN(C)c1nc(C)cc(C)n1)C(=O)c1cccnc1-c1ccccc1 [Example B-9, N-(2-((4,6-dimethylpyrimidin-2-yl)(methyl)amino)ethyl)-N-ethyl-2-phenylnicotinamide]	26.4
CCN(CCN(C)c1nc(C)cc(C)n1)C(=O)c1cccnc1OCC(F)F [Example B-10, 2-(2,2-difluoroethoxy)-N-(2-((4,6-dimethylpyrimidin-2-yl)(methyl)amino)ethyl)-N-ethylnicotinamide]	40.6
CCN(CCN(C)c1nc(C)cc(C)n1)C(=O)c1cccnc1OCC(F)(F)F [Example B-11, N-(2-((4,6-dimethylpyrimidin-2-yl)(methyl)amino)ethyl)-N-ethyl-2-(2,2,2-trifluoroethoxy)nicotinamide]	19.8
CCN(CCN(C)c1nc(C)cc(C)n1)C(=O)c1ccc(F)cc1-n1nccn1 [Example B-12, N-(2-((4,6-dimethylpyrimidin-2-yl)(methyl)amino)ethyl)-N-ethyl-4-fluoro-2-(2H-1,2,3-triazol-2-yl)benzamide]	12.6
CCOc1ccccc1C(=O)N(CC)CCN(C)c1nc(C)cc(C)n1 [Example B-13, N-(2-((4,6-dimethylpyrimidin-2-yl)(methyl)amino)ethyl)-2-ethoxy-N-ethylbenzamide]	16
CCN(CCN(C)c1nc(C)cc(C)n1)C(=O)c1ccccc1-n1cccn1 [Example B-14, N-(2-((4,6-dimethylpyrimidin-2-yl)(methyl)amino)ethyl)-N-ethyl-2-(1H-pyrazol-1-yl)benzamide]	13.9
CCN(CCN(C)c1nc(C)cc(C)n1)C(=O)c1nccnc1-n1nccn1 [Example B-15, N-(2-((4,6-dimethylpyrimidin-2-yl)(methyl)amino)ethyl)-N-ethyl-3-(2H-1,2,3-triazol-2-yl)pyrazine-2-carboxamide]	1270
CCCc1ccccc1C(=O)N(CC)CCN(C)c1nc(C)cc(C)n1 [Example B-16, N-{2-[(4,6-dimethylpyrimidin-2-yl)(methyl)amino]ethyl}-N-ethyl-2-propylbenzamide]	19.9
CCN(CCN(C)c1nc(C)cc(C)n1)C(=O)c1ccccc1OCC(F)(F)F [Example B-17, N-{2-[(4,6-dimethylpyrimidin-2-yl)(methyl)amino]ethyl}-N-ethyl-2-(2,2,2-trifluoroethoxy)-benzamide]	11.2

Compound	IC50 [nM]
CCN(CCN(C)c1nc(C)cc(C)n1)C(=O)c1ccccc1CC(F)(F)F [Example B-18, N-{2-[(4,6-dimethylpyrimidin-2-yl)(methyl)amino]ethyl}-N-ethyl-2-(2,2,2-trifluoroethyl)benzamide]	36.2
CCN(CCN(C)c1nc(C)cc(C)n1)C(=O)c1ccc(OC)nc1C1CC1 [Example B-19, 2-cyclopropyl-N-{2-[(4,6-dimethylpyrimidin-2-yl)(methyl)amino]ethyl}-N-ethyl-6-methoxypyridine-3-carboxamide]	32.1
CCN(CCN(C)c1nc(C)cc(C)n1)C(=O)c1ccccc1OCC(F)F [Example B-20, 2-(2,2-difluoroethoxy)-N-{2-[(4,6-dimethylpyrimidin-2-yl)(methyl)amino]ethyl}-N-ethylbenzamide]	9.2
CCN(CCN(C)c1nc(C)cc(C)n1)C(=O)c1cccnc1CC(F)(F)F [Example B-21, N-{2-[(4,6-dimethylpyrimidin-2-yl)(methyl)amino]ethyl}-N-ethyl-2-(2,2,2-trifluoroethyl)pyridine-3-carboxamide]	424
CCN(CCN(C)c1nc(C)cc(C)n1)C(=O)c1ncccc1-n1nccn1 [Example B-22, N-{2-[(4,6-dimethylpyrimidin-2-yl)(methyl)amino]ethyl}-N-ethyl-3-(2H-1,2,3-triazol-2-yl)pyridine-2-carboxamide]	32.4
CCN(CCN(C)c1nc(C)cc(C)n1)C(=O)c1ccccc1CC(F)F [Example B-23, 2-(2,2-difluoroethyl)-N-{2-[(4,6-dimethylpyrimidin-2-yl)(methyl)amino]ethyl}-N-ethylbenzamide]	94.9
CCN(CCN(C)c1nc(C)cc(C)n1)C(=O)c1cccnc1-n1cccn1 [Example B-24, N-{2-[(4,6-dimethylpyrimidin-2-yl)(methyl)amino]ethyl}-N-ethyl-2-(1H-pyrazol-1-yl)pyridine-3-carboxamide]	12.8
CCN(CCN(C)c1nc(C)cc(C)n1)C(=O)c1nccnc1N1CCCC1 [Example B-25, N-{2-[(4,6-dimethylpyrimidin-2-yl)(methyl)amino]ethyl}-N-ethyl-3-pyrrolidin-1-ylpyrazine-2-carboxamide]	324
CCN(CCN(C)c1nc(C)cc(C)n1)C(=O)c1ccccc1C1CCC1 [Example B-26, 2-cyclobutyl-N-{2-[(4,6-dimethylpyrimidin-2-yl)(methyl)amino]ethyl}-N-ethylbenzamide]	20.4
CCN(CCN(C)c1nc(C)cc(C)n1)C(=O)c1ncccc1-c1ccccc1 [Example B-27, N-{2-[(4,6-dimethylpyrimidin-2-yl)(methyl)amino]ethyl}-N-ethyl-3-phenylpyridine-2-carboxamide]	12.5
CCN(CCN(C)c1nc(C)cc(C)n1)C(=O)c1nccnc1-n1cccn1 [Example B-28, N-{2-[(4,6-dimethylpyrimidin-2-yl)(methyl)amino]ethyl}-N-ethyl-3-(1H-pyrazol-1-yl)pyrazine-2-carboxamide]	18.7
CCN(CCN(C)c1nc(C)cc(C)n1)C(=O)c1ccccc1C1CC1(F)F (centres unmarked) [Example B-29, 2-(2,2-difluorocyclopropyl)-N-{2-[(4,6-dimethylpyrimidin-2-yl)(methyl)amino]ethyl}-N-ethylbenzamide]	18.9
CCN(CCN(C)c1nc(C)cc(C)n1)C(=O)c1ccccc1N1CCCC1 [Example B-30, N-{2-[(4,6-dimethylpyrimidin-2-yl)(methyl)amino]ethyl}-N-ethyl-2-pyrrolidin-1-ylbenzamide]	18.5
CCN(CCN(C)c1nc(C)cc(C)n1)C(=O)c1ccccc1-n1ncnn1 [Example B-31, N-{2-[(4,6-dimethylpyrimidin-2-yl)(methyl)amino]ethyl}-N-ethyl-2-(2H-tetrazol-2-yl)benzamide]	8.8
CCN(CCN(C)c1nc(C)cc(C)n1)C(=O)c1ccccc1-c1ncccn1 [Example B-32, N-{2-[(4,6-dimethylpyrimidin-2-yl)(methyl)amino]ethyl}-N-ethyl-2-pyrimidin-2-ylbenzamide]	19.5
CCN(CCN(C)c1nc(C)cc(C)n1)C(=O)c1nccnc1-c1ccccn1 [Example B-33, N-{2-[(4,6-dimethylpyrimidin-2-yl)(methyl)amino]ethyl}-N-ethyl-3-pyridin-2-ylpyrazine-2-carboxamide]	23
